According to patent US20230011571A1, “SMALL MOLECULE FURIN INHIBITORS FOR TREATING INFECTIOUS DISEASES” (BP Asset V, Inc., priority 2019, published 2023):

Columns and labels:
Assay type in all cases: cell-based
[1] = test system: Chikungunya virus (CHIKV); experiment: microbe, parasite or virus in culture; conditions: for inhibition at 1 µM: Chikungunya virus, Vero, 48 h, read-out: Percent viral inhibition CHKV
dengue virus (DENV) = experiment: microbe, parasite or virus in culture; conditions: for inhibition at 1 µM: Dengue virus, Vero, 120 h, read-out: Percent viral inhibition DENY
Marburg virus (MARV) = experiment: organism not typed; conditions: for inhibition at 1 µM: Vero, 72 h, read-out: Percent viral inhibition MARV

For `CCOC(=O)NCC1CCN(Cc2cc(Oc3cnc(N4CCN(CCC(=O)O)CC4)nc3)nc(-c3cc(Cl)cc(Cl)c3)c2)CC1` [Example 267, 3-(4-(5-((6-(3,5-dichlorophenyl)-4-((4-(((ethoxycarbonyl)amino)methyl)piperidin-1-yl)methyl)pyridin-2-yl)oxy)pyrimidin-2-yl)piperazin-1-yl) propanoic acid], which inhibition at 1 µM [1] is on record?
Its inhibition at 1 µM is 34.6%.

What about the inhibition at 1 µM (dengue virus (DENV)) of the same molecule?
Its inhibition at 1 µM is 37%.

And the inhibition at 1 µM (Marburg virus (MARV))?
The inhibition at 1 µM was 65%.

`CC(CC1CCN(Cc2cc(Oc3cnc(N4CCNCC4)nc3)nc(-c3cc(Cl)cc(Cl)c3)c2)CC1)C(=O)O` (stereo not drawn) [Example 269, 3-(1-((2-(3,5-dichlorophenyl)-6-((2-(piperazin-1-yl)pyrimidin-5-yl)oxy)pyridin-4-yl)methyl)piperidin-4-yl)-2-methylpropanoic acid] was tested. Which inhibition at 1 µM [1] did it give?
Its inhibition at 1 µM is 24.5%.

And the inhibition at 1 µM (dengue virus (DENV))?
The inhibition at 1 µM was 39.5%.

And the inhibition at 1 µM (Marburg virus (MARV))?
The inhibition at 1 µM was 35%.

With `CNC(=O)NCC1CCN(Cc2cc(Oc3cnc(N4CCN(CCC(=O)O)CC4)c(F)c3)nc(-c3cc(Cl)cc(Cl)c3)c2)CC1` [Example 270, 3-(4-(5-((6-(3,5-dichlorophenyl)-4-((4-((3-methylureido)methyl)piperidin-1-yl)methyl)pyridin-2-yl)oxy)-3-fluoropyridin-2-yl)piperazin-1-yl)propanoic acid] as the molecule, how does the inhibition at 1 µM [1] read?
The inhibition at 1 µM was 30.7%.

And the inhibition at 1 µM (dengue virus (DENV))?
Its inhibition at 1 µM is 61.6%.

What about the inhibition at 1 µM (Marburg virus (MARV)) of the same molecule?
Its inhibition at 1 µM is 53.6%.

Which inhibition at 1 µM [1] does the source give for `CS(=O)(=O)CCCN1CCN(c2ccc(Oc3cc(CN4CCC(CCC(=O)O)CC4)cc(-c4cc(Cl)cc(Cl)c4)n3)cn2)CC1` [Example 271, 3-(1-((2-(3,5-dichlorophenyl)-6-((6-(4-(3-(methylsulfonyl)propyl)piperazin-1-yl)pyridin-3-yl)oxy)pyridin-4-yl)methyl)piperidin-4-yl)propanoic acid] here?
The inhibition at 1 µM was 22.5%.

What about the inhibition at 1 µM (dengue virus (DENV)) of the same molecule?
Its inhibition at 1 µM is 0%.

And the inhibition at 1 µM (Marburg virus (MARV))?
Its inhibition at 1 µM is 59.7%.

Which inhibition at 1 µM [1] does the source give for `CS(=O)(=O)CCCN1CCN(c2ncc(Oc3cc(CN4CCC(CCC(=O)O)CC4)cc(-c4cc(Cl)cc(Cl)c4)n3)cn2)CC1` [Example 272, 3-(1-((2-(3,5-dichlorophenyl)-6-((2-(4-(3-(methylsulfonyl)propyl)piperazin-1-yl)pyrimidin-5-yl)oxy)pyridin-4-yl)methyl)piperidin-4-yl)propanoic acid] here?
The inhibition at 1 µM was 30.3%.

And the inhibition at 1 µM (dengue virus (DENV))?
The inhibition at 1 µM was 42.4%.

And the inhibition at 1 µM (Marburg virus (MARV))?
Its inhibition at 1 µM is 45.5%.

With `CC(=O)NCC1CCN(Cc2cc(Oc3cnc(N4CCN(CCC(N)=O)CC4)nc3)nc(-c3cc(F)c(F)c(Cl)c3)c2)CC1` [Example 273] as the molecule, how does the inhibition at 1 µM [1] read?
The inhibition at 1 µM was 23.4%.

What about the inhibition at 1 µM (dengue virus (DENV)) of the same molecule?
Its inhibition at 1 µM is 25.4%.

And the inhibition at 1 µM (Marburg virus (MARV))?
The inhibition at 1 µM was 58.5%.

Which inhibition at 1 µM [1] does the source give for `CNC(=O)NCC1CCN(Cc2cc(Oc3cnc(N4CCN(CCCS(C)(=O)=O)CC4)nc3)nc(-c3cc(F)cc(Cl)c3)c2)CC1` [Example 274, 1-((1-((2-(3-chloro-5-fluorophenyl)-6-((2-(4-(3-(methylsulfonyl)propyl)piperazin-1-yl)pyrimidin-5-yl)oxy)pyridin-4-yl)methyl)piperidin-4-yl)methyl)-3-methylurea] here?
The inhibition at 1 µM was 44.4%.

What about the inhibition at 1 µM (dengue virus (DENV)) of the same molecule?
The inhibition at 1 µM was 56.1%.

And the inhibition at 1 µM (Marburg virus (MARV))?
Its inhibition at 1 µM is 49%.

Which results are given for `COC(=O)NCC1CCN(Cc2cc(Oc3cnc(N4CCNCC4)nc3)nc(-c3cc(F)cc(Cl)c3)c2)CC1` [Example 275, methyl((1-((2-(3-chloro-5-fluorophenyl)-6-((2-(piperazin-1-yl)pyrimidin-5-yl)oxy)pyridin-4-yl)methyl)piperidin-4-yl)methyl)carbamate]?
inhibition at 1 µM [1]: 0%; inhibition at 1 µM (dengue virus (DENV)): 0%; inhibition at 1 µM (Marburg virus (MARV)): 0%

Which results are given for `CS(=O)(=O)CCC1CCN(Cc2cc(Oc3ccc(N4CCN(CCC(=O)O)CC4)nc3)nc(-c3cc(Cl)cc(Cl)c3)c2)CC1` [Example 276, 3-(4-(5-((6-(3,5-dichlorophenyl)-4-((4-(2-(methylsulfonyl)ethyl)piperidin-1-yl)methyl)pyridin-2-yl)oxy)pyridin-2-yl)piperazin-1-yl)propanoic acid]?
inhibition at 1 µM [1]: 31.8%; inhibition at 1 µM (dengue virus (DENV)): 27.3%; inhibition at 1 µM (Marburg virus (MARV)): 51.8%

For `NS(=O)(=O)CCC1CCN(Cc2cc(Oc3ccc(N4CCN(CCC(=O)O)CC4)nc3)nc(-c3cc(Cl)cc(Cl)c3)c2)CC1` [Example 277, 3-(4-(5-((6-(3,5-dichlorophenyl)-4-((4-(2-sulfamoylethyl)piperidin-1-yl)methyl)pyridin-2-yl)oxy)pyridin-2-yl)piperazin-1-yl)propanoic acid], which inhibition at 1 µM [1] is on record?
The inhibition at 1 µM was 11.7%.

What about the inhibition at 1 µM (dengue virus (DENV)) of the same molecule?
Its inhibition at 1 µM is 21.7%.

What about the inhibition at 1 µM (Marburg virus (MARV)) of the same molecule?
The inhibition at 1 µM was 61.8%.

With `O=C(O)CC1CCN(Cc2cc(Oc3cnc(N4CCN(CCC5(O)CC5)CC4)nc3)nc(-c3cc(Cl)cc(Cl)c3)c2)CC1` [Example 278, 2-(1-((2-(3,5-dichlorophenyl)-6-((2-(4-(2-(1-hydroxycyclopropyl)ethyl)piperazin-1-yl)pyrimidin-5-yl)oxy)pyridin-4-yl)methyl)piperidin-4-yl)acetic acid] as the molecule, how does the inhibition at 1 µM [1] read?
The inhibition at 1 µM was 45.6%.

And the inhibition at 1 µM (dengue virus (DENV))?
The inhibition at 1 µM was 45.5%.

And the inhibition at 1 µM (Marburg virus (MARV))?
The inhibition at 1 µM was 81.7%.

How did the inhibition at 1 µM [1] turn out when `CC(C)(O)CCN1CCN(c2ncc(Oc3cc(CN4CCC(CC(=O)O)CC4)cc(-c4cc(Cl)cc(Cl)c4)n3)cn2)CC1` [Example 279, 2-(1-((2-(3,5-dichlorophenyl)-6-((2-(4-(3-hydroxy-3-methylbutyl)piperazin-1-yl)pyrimidin-5-yl)oxy)pyridin-4-yl)methyl)piperidin-4-yl)acetic acid] was run?
Its inhibition at 1 µM is 37.8%.

And the inhibition at 1 µM (dengue virus (DENV))?
Its inhibition at 1 µM is 27.5%.

What about the inhibition at 1 µM (Marburg virus (MARV)) of the same molecule?
Its inhibition at 1 µM is 18.8%.

`CC(=O)NCC1CCN(Cc2cc(Oc3cnc(N4CCN(C(C)CC(=O)O)CC4)nc3)nc(-c3cc(Cl)cc(Cl)c3)c2)CC1` (stereo not drawn) [Example 282, 3-(4-(5-((4-((4-(acetamidomethyl)piperidin-1-yl)methyl)-6-(3,5-dichlorophenyl)pyridin-2-yl)oxy)pyrimidin-2-yl)piperazin-1-yl)butanoic acid] was tested. Which inhibition at 1 µM [1] did it give?
Its inhibition at 1 µM is 8.2%.

And the inhibition at 1 µM (dengue virus (DENV))?
Its inhibition at 1 µM is 21.8%.

What about the inhibition at 1 µM (Marburg virus (MARV)) of the same molecule?
Its inhibition at 1 µM is 63.7%.

Which inhibition at 1 µM [1] does the source give for `CC(=O)NCC1CCN(Cc2cc(Oc3cnc(N4CCN(CC(C)C(=O)O)CC4)nc3)nc(-c3cc(Cl)cc(Cl)c3)c2)CC1` (stereo not drawn) [Example 283, 3-(4-(5-((4-((4-(acetamidomethyl)piperidin-1-yl)methyl)-6-(3,5-dichlorophenyl)pyridin-2-yl)oxy)pyrimidin-2-yl)piperazin-1-yl)-2-methylpropanoic acid] here?
The inhibition at 1 µM was 29.8%.

And the inhibition at 1 µM (dengue virus (DENV))?
Its inhibition at 1 µM is 43.8%.

What about the inhibition at 1 µM (Marburg virus (MARV)) of the same molecule?
The inhibition at 1 µM was 49.6%.

Which results are given for `CC(=O)NCC1CCN(Cc2cc(Oc3cnc(N4CCN(CCS(C)(=O)=O)CC4)nc3)nc(-c3cc(Cl)cc(Cl)c3)c2)CC1` [Example 285, N-((1-((2-(3,5-dichlorophenyl)-6-((2-(4-(2-(methylsulfonyl)ethyl)piperazin-1-yl)pyrimidin-5-yl)oxy)pyridin-4-yl)methyl)piperidin-4-yl)methyl)acetamide]?
inhibition at 1 µM [1]: 35.3%; inhibition at 1 µM (dengue virus (DENV)): 22.9%; inhibition at 1 µM (Marburg virus (MARV)): 80.4%

For `CC(=O)NCC1CCN(Cc2cc(Oc3cnc(N4CCN(CCS(N)(=O)=O)CC4)nc3)nc(-c3cc(Cl)cc(Cl)c3)c2)CC1` [Example 286, N-((1-((2-(3,5-dichlorophenyl)-6-((2-(4-(2-sulfamoylethyl)piperazin-1-yl)pyrimidin-5-yl)oxy)pyridin-4-yl)methyl)piperidin-4-yl)methyl)acetamide], which inhibition at 1 µM [1] is on record?
Its inhibition at 1 µM is 0%.

And the inhibition at 1 µM (dengue virus (DENV))?
Its inhibition at 1 µM is 0%.

What about the inhibition at 1 µM (Marburg virus (MARV)) of the same molecule?
Its inhibition at 1 µM is 19.2%.

With `CCC(CN1CCN(c2ccc(Oc3cc(CN4CCC(CNC(C)=O)CC4)cc(-c4cc(Cl)cc(Cl)c4)n3)cn2)CC1)C(=O)O` (stereo not drawn) [Example 288, 2-((4-(5-((4-((4-(acetamidomethyl)piperidin-1-yl)methyl)-6-(3,5-dichlorophenyl)pyridin-2-yl)oxy)pyridin-2-yl)piperazin-1-yl)methyl)butanoic acid] as the molecule, how does the inhibition at 1 µM [1] read?
The inhibition at 1 µM was 28.2%.

And the inhibition at 1 µM (dengue virus (DENV))?
The inhibition at 1 µM was 52.2%.

What about the inhibition at 1 µM (Marburg virus (MARV)) of the same molecule?
The inhibition at 1 µM was 49.1%.

`CC(=O)NCC1CCN(Cc2cc(Oc3ccc(N4CCN(CCS(N)(=O)=O)CC4)nc3)nc(-c3cc(Cl)cc(Cl)c3)c2)CC1` [Example 289, N-((1-((2-(3,5-dichlorophenyl)-6-((6-(4-(2-sulfamoylethyl)piperazin-1-yl)pyridin-3-yl)oxy)pyridin-4-yl)methyl)piperidin-4-yl)methyl)acetamide] was tested. Which “Percent viral inhibition CHKV” value ([1]; 1 µM) did it give?
Its value is 28.95%.

And the “Percent viral inhibition DENY” value (dengue virus (DENV); 1 µM)?
The value was 43.48%.

What about the “Percent viral inhibition MARV” value (Marburg virus (MARV); 1 µM) of the same molecule?
Its value is 40.64%.

With `CNC(=O)NCC1CCN(Cc2cc(Oc3ccc(N4CCN(CCS(C)(=O)=O)CC4)nc3)nc(-c3cc(Cl)cc(Cl)c3)c2)CC1` [Example 290, 1-((1-((2-(3,5-dichlorophenyl)-6-((6-(4-(2-(methylsulfonyl)ethyl)piperazin-1-yl)pyridin-3-yl)oxy)pyridin-4-yl)methyl)piperidin-4-yl)methyl)-3-methylurea] as the molecule, how does the inhibition at 1 µM [1] read?
Its inhibition at 1 µM is 0%.

What about the inhibition at 1 µM (dengue virus (DENV)) of the same molecule?
The inhibition at 1 µM was 18.9%.

And the inhibition at 1 µM (Marburg virus (MARV))?
Its inhibition at 1 µM is 50.6%.

How did the inhibition at 1 µM [1] turn out when `CNC(=O)NCC1CCN(Cc2cc(Oc3cnc(N4CCN(CC(C)C(=O)O)CC4)nc3)cc(-c3cc(Cl)cc(Cl)c3)c2)CC1` (stereo not drawn) [Example 292, 3-(4-(5-((3′,5′-dichloro-5-((4-((3-methylureido)methyl)piperidin-1-yl)methyl)-[1,1′-biphenyl]-3-yl)oxy)pyrimidin-2-yl)piperazin-1-yl)-2-methylpropanoic acid] was run?
Its inhibition at 1 µM is 15.9%.

What about the inhibition at 1 µM (dengue virus (DENV)) of the same molecule?
Its inhibition at 1 µM is 26%.

And the inhibition at 1 µM (Marburg virus (MARV))?
Its inhibition at 1 µM is 54.2%.

Which results are given for `CC(=O)NCC1CCN(Cc2cc(Oc3ccc(N4CCN(CCS(C)(=O)=O)CC4)nc3)cc(-c3cc(Cl)cc(Cl)c3)c2)CC1` [Example 293, N-((1-((3′,5′-dichloro-5-((6-(4-(2-(methylsulfonyl)ethyl)piperazin-1-yl)pyridin-3-yl)oxy)-[1,1′-biphenyl]-3-yl)methyl)piperidin-4-yl)methyl)acetamide]?
inhibition at 1 µM [1]: 0%; inhibition at 1 µM (dengue virus (DENV)): 0%; inhibition at 1 µM (Marburg virus (MARV)): 0%

What does the source list for `COC(=O)NCC1CCN(Cc2cc(Oc3cnc(N4CCN(CCC(=O)O)[C@@H](C)C4)nc3)nc(-c3cc(Cl)cc(Cl)c3)c2)CC1` [Example 294, (S)-3-(4-(5-((6-(3,5-dichlorophenyl)-4-((4-(((methoxycarbonyl)amino)methyl)piperidin-1-yl)methyl)pyridin-2-yl)oxy)pyrimidin-2-yl)-2-methyl-piperazin-1-yl)propanoic acid]?
inhibition at 1 µM [1]: 28.7%; inhibition at 1 µM (dengue virus (DENV)): 57.7%; inhibition at 1 µM (Marburg virus (MARV)): 54.2%
